In ChEMBL document CHEMBL1157216, “A common protein fold topology shared by flavonoid biosynthetic enzymes and therapeutic targets” (J Nat Prod, 2006):
In brackets after ≈: the same amount, converted by molar mass.

Columns and labels:
[1] = Inhibition of PKC
[2] = Inhibition of thymocyte protein tyrosine kinase
[3] = Inhibition of FGFR
[4] = Inhibition of PI3K
[5] = target: Epidermal growth factor receptor (Homo sapiens, UniProt P00533); test: Inhibition of EGFR
[6] = target: Proto-oncogene tyrosine-protein kinase Src (Homo sapiens, UniProt P12931); test: Inhibition of c-Src
[7] = target: Cyclin-dependent kinase 6 (Homo sapiens, UniProt Q00534); test: Inhibition of CDK6
[8] = Inhibition of CK2
[9] = target: Myosin light chain kinase, smooth muscle (Homo sapiens, UniProt Q15746); test: Inhibition of MLCK
[10] = Inhibition of CK1
[11] = Inhibition of PKA
[12] = Inhibition of CaM kinase
[13] = Inhibition of Rous sarcoma virus SRC
[14] = Inhibition of PKD

Epidermal growth factor receptor, sequence (P00533 whole entry): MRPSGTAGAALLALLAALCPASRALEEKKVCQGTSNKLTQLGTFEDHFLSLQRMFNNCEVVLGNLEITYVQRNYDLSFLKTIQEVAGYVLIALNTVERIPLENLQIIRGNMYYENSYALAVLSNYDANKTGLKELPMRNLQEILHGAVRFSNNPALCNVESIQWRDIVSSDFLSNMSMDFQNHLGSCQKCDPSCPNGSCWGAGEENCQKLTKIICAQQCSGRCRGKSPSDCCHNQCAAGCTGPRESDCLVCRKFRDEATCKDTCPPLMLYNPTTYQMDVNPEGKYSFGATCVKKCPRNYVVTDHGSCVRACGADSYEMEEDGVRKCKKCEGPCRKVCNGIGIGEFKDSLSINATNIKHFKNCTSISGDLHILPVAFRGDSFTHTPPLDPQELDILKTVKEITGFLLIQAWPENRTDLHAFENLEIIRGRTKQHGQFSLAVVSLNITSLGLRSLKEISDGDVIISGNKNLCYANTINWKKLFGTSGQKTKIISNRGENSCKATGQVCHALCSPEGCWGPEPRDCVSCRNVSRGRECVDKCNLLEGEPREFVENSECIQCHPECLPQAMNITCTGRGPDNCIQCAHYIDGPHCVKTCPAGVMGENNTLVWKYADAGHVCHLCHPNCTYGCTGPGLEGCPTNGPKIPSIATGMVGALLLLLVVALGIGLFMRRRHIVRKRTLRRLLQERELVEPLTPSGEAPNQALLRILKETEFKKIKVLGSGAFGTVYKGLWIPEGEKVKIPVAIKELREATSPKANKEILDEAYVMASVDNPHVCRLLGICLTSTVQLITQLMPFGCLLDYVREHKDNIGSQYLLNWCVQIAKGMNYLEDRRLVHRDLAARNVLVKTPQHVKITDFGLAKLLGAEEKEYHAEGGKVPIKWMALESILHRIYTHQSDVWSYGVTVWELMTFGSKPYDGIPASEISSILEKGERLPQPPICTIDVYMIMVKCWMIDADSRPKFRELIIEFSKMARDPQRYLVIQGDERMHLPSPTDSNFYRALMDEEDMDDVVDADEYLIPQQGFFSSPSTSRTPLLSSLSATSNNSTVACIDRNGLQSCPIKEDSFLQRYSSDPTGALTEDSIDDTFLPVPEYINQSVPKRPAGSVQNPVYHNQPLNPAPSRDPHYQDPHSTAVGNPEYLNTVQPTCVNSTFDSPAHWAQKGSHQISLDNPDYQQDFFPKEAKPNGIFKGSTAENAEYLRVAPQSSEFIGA
Myosin light chain kinase, smooth muscle, sequence (Q15746 whole entry): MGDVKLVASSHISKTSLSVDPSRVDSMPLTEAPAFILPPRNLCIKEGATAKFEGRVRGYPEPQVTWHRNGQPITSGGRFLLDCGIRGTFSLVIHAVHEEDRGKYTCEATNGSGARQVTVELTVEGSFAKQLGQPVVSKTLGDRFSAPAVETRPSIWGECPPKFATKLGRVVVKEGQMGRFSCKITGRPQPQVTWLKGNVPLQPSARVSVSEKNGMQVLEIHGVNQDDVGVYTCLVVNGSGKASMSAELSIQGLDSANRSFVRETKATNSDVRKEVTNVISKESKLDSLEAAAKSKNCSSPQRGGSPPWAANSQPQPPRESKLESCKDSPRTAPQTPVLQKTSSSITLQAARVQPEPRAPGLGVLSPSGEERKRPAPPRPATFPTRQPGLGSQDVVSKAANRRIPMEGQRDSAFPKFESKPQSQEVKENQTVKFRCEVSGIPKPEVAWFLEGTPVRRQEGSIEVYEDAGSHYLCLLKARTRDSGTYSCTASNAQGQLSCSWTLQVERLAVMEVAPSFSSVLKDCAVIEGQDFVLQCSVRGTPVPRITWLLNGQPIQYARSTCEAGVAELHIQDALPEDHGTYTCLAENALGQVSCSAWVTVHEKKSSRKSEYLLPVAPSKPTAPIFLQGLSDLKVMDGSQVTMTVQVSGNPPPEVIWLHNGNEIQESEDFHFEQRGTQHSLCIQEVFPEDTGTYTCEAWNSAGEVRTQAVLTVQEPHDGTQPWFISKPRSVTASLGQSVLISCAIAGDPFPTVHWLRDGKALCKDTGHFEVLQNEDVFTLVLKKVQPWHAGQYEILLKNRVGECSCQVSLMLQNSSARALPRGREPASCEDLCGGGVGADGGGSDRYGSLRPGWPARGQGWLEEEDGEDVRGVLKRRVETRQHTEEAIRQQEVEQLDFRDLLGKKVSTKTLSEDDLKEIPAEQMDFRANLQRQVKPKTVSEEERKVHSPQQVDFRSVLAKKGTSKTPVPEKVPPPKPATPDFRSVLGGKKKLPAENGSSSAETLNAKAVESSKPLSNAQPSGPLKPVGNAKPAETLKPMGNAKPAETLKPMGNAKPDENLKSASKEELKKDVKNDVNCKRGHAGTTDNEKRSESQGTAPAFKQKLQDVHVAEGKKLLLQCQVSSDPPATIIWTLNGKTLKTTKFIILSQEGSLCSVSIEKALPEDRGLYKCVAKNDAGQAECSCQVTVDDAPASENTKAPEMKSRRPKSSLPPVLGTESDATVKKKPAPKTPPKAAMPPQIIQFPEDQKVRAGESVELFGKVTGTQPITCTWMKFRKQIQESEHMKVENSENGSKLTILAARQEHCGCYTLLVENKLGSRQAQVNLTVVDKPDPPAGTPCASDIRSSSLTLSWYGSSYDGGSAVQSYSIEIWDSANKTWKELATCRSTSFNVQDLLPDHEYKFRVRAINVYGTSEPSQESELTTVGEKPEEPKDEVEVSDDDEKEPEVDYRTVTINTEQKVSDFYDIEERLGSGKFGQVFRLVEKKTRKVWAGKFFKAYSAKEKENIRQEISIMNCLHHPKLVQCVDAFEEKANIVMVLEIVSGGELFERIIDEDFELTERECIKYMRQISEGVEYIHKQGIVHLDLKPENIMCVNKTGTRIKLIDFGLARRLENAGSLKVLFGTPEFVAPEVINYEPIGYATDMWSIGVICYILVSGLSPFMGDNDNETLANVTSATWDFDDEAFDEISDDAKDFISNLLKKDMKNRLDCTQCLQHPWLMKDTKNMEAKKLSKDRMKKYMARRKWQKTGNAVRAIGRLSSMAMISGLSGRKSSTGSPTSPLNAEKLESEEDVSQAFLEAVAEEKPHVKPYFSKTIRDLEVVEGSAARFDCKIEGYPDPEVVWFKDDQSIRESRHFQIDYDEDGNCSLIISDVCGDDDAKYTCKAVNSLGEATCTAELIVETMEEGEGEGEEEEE
Cyclin-dependent kinase 6, sequence (Q00534 whole entry): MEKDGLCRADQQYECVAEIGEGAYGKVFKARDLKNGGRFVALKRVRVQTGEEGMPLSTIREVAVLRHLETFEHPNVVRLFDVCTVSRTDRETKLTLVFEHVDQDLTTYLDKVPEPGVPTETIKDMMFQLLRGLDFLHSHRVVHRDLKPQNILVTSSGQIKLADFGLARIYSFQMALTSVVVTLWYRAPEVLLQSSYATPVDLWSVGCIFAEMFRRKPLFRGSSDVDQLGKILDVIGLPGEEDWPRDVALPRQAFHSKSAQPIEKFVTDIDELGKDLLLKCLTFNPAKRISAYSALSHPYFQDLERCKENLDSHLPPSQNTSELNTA
Proto-oncogene tyrosine-protein kinase Src, sequence (P12931 2-536 limits assumed): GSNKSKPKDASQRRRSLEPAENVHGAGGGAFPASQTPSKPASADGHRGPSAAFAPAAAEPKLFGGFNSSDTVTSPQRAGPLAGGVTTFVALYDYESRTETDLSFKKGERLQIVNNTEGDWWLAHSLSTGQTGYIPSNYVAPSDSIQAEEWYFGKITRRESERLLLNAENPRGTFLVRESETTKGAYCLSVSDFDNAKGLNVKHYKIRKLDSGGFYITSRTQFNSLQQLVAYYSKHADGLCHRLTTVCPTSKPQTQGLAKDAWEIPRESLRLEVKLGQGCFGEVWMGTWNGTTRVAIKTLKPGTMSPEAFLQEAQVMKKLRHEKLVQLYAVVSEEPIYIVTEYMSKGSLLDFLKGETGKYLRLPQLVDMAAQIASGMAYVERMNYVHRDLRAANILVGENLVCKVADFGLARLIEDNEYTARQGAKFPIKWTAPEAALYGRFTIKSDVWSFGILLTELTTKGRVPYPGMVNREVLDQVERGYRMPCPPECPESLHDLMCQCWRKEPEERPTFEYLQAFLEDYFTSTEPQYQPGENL

Compound `O=c1cc(-c2ccc(O)cc2)oc2cc(O)cc(O)c12` [APIGENIN] has an IC50 [1] of 10 µM, an ID50 [2] of 90 µg/mL (≈ 333 µM) and an IC50 [3] of 20 µM. For the same compound, the IC50 [4] was 12 µM.

Compound `O=C(/C=C/c1ccc(O)c(O)c1)c1ccc(O)cc1O` [BUTEIN] has an IC50 [5] of 8 µM and an IC50 [6] of 65 µM.

For `O=C1c2ccccc2-[n+]2ccc3c([nH]c4ccccc43)c21` [FASCAPLYSIN CHLORIDE], the IC50 [7] was 3.4 µM.

Compound `O=c1c(O)c(-c2ccc(O)c(O)c2)oc2cc(O)ccc12` [FISETIN] has an IC50 [2] of 35 µM, an IC50 [8] of 0.35 µM and an IC50 [4] of 10 µM.

For `O=c1cc(-c2ccc(O)c(O)c2)oc2cc(O)cc(O)c12` [LUTEOLIN], the IC50 [4] was 8 µM.

Work on `O=c1c(O)c(-c2cc(O)c(O)c(O)c2)oc2cc(O)cc(O)c12` [MYRICETIN] yielded a Ki [1] of 12.1 µM, an IC50 [8] of 0.92 µM and a Ki [8] of 0.6 µM. The IC50 [4] was 1.8 µM, the Kd [4] was 0.17 µM and the Ki [9] was 1.7 µM. The Ki [10] was 9 µM and the Ki [11] was 27.5 µM.

Compound `Oc1cc(O)cc(/C=C/c2ccc(O)c(O)c2)c1` [PICEATANNOL] has an IC50 [1] of 8 µM, a Ki [2] of 15 µM and an IC50 [9] of 12 µM. The IC50 [11] was 3 µM and the IC50 [12] was 19 µM.

Compound `O=c1c(O)c(-c2ccc(O)c(O)c2)oc2cc(O)cc(O)c12` [QUERCETIN] has an ID50 [2] of 11 µg/mL (≈ 36.4 µM), an IC50 [4] of 3.8 µM and a Kd [4] of 0.28 µM. For the same compound, the Ki [13] was 6 µM.

In the case of `Oc1ccc(/C=C/c2cc(O)cc(O)c2)cc1` [RESVERATROL], the IC50 [1] is reported as 90 µM, the Ki [1] is reported as 55 µM and the IC50 [8] is reported as 10 µM. It also gave a Ki [8] of 1.2 µM and an IC50 [14] of 200 µM.

Compound `COc1c(O)cc2occ(-c3ccc(O)cc3)c(=O)c2c1O` [TECTORIGENIN] has an IC50 [5] of 3.3 µM.
